In patent US20080045506A1 (GLAXO GROUP LIMITED, priority 2004, published 2008):
Where a name gives a salt, the structure may show the parent alone.

Molecular target: T1, histamine H3 receptor (Homo sapiens, UniProt Q9Y5N1)
T1 construct: expressed in transfected cells; host or cells: CHO K1 cells (pSwitch/pGene GeneSwitch system, mifepristone-induced), clone 3H3; membranes
Assay: Histamine H3 functional antagonist assay (method B)
Type: biochemical
Conditions: [35S]-GTPγS SPA, membrane prepared from cultured H3 cells, histamine at EC80, averages of a number of experiments, read-out: functional pKi (fpKi), antagonism (converted)
Text: A membrane preparation containing histamine H3 receptors may be prepared in accordance with the following procedures:
(i) Generation of Histamine H3 Cell Line
DNA encoding the human histamine H3 gene (Huvar, A. et al. (1999) Mol. Pharmacol. 55(6), 1101-1107) was cloned into a holding vector, pcDNA3.1 TOPO (InVitrogen) and its cDNA was isolated from this vector by restriction digestion of plasmid DNA with the enzymes BamH1 and Not-1 and ligated into the inducible expression vector pGene (InVitrogen) digested with the same enzymes. The GeneSwitch™ system (a system where in transgene expression is switched off in the absence of an inducer and switched on in the presence of an inducer) was performed as described in U.S. Pat. Nos. 5,364,791; 5,874,534; and 5,935,934. Ligated DNA was transformed into competent DH5α E. coli host bacterial cells and plated onto Luria Broth (LB) agar containing Zeocin™ (an antibiotic which allows the selection of cells expressing the sh ble gene which is present on pGene and pSwitch) at 50 μg ml^−1. Colonies containing the re-ligated plasmid were identified by restriction analysis. DNA for transfection into mammalian cells was prepared from 250 ml cultures of the host bacterium containing the pGeneH3 plasmid and isolated using a DNA preparation kit (Qiagen Midi-Prep) as per manufacturers guidelines (Qiagen).
CHO K1 cells previously transfected with the pSwitch regulatory plasmid (InVitrogen) were seeded at 2×10e6 cells per T75 flask in Complete Medium, containing Hams F12 (GIBCOBRL, Life Technologies) medium supplemented with 10% v/v dialysed foetal bovine serum, L-glutamine, and hygromycin (100 μg ml^−1), 24 hours prior to use. Plasmid DNA was transfected into the cells using Lipofectamine plus according to the manufacturers guidelines (InVitrogen). 48 hours post transfection cells were placed into complete medium supplemented with 500 μg ml^−1 Zeocin™.
10-14 days post selection 10 nM Mifepristone (InVitrogen), was added to the culture medium to induce the expression of the receptor. 18 hours post induction cells were detached from the flask using ethylenediamine tetra-acetic acid (EDTA; 1:5000; InVitrogen), following several washes with phosphate buffered saline pH 7.4 and resuspended in Sorting Medium containing Minimum Essential Medium (MEM), without phenol red, and supplemented with Earles salts and 3% Foetal Clone II (Hyclone). Approximately 1×10e7 cells were examined for receptor expression by staining with a rabbit polyclonal antibody, 4a, raised against the N-terminal domain of the histamine H3 receptor, incubated on ice for 60 minutes, followed by two washes in sorting medium. Receptor bound antibody was detected by incubation of the cells for 60 minutes on ice with a goat anti rabbit antibody, conjugated with Alexa 488 fluorescence marker (Molecular Probes). Following two further washes with Sorting Medium, cells were filtered through a 50 μm Filcon™ (BD Biosciences) and then analysed on a FACS Vantage SE Flow Cytometer fitted with an Automatic Cell Deposition Unit. Control cells were non-induced cells treated in a similar manner. Positively stained cells were sorted as single cells into 96-well plates, containing Complete Medium containing 500 μg ml^−1 Zeocin™ and allowed to expand before reanalysis for receptor expression via antibody and ligand binding studies. One clone, 3H3, was selected for membrane preparation.
(ii) Membrane Preparation from Cultured Cells
All steps of the protocol are carried out at 4° C. and with pre-cooled reagents. The cell pellet is resuspended in 10 volumes of homogenisation buffer (50 mM N-2-hydroxyethylpiperazine-N′-2-ethanesulfonic acid (HEPES), 1 mM ethylenediamine tetra-acetic acid (EDTA), pH 7.4 with KOH, supplemented with 10e-6M leupeptin (acetyl-leucyl-leucyl-arginal; Sigma L2884), 25 μg/ml bacitracin (Sigma B0125), 1 mM phenylmethylsulfonyl fluoride (PMSF) and 2×10e-6M pepstain A (Sigma)). […]

T1 sequence (Q9Y5N1 whole entry): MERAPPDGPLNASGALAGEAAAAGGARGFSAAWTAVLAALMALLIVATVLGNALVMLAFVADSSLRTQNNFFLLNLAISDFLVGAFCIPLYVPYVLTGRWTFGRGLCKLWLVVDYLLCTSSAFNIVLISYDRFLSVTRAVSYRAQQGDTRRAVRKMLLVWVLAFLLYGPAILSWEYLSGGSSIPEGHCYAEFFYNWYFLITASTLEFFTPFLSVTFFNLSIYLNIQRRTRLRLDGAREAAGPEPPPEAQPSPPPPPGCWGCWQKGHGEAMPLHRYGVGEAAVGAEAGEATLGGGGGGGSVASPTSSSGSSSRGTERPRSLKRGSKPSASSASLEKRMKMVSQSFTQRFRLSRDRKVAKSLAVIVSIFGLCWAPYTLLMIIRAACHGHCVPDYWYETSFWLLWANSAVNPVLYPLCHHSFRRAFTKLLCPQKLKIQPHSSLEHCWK

Compound | Ki [nM]
Cc1noc(-c2ccc(N3CCC(C(=O)N4CCCN(C5CCC5)CC4)C3)cc2)n1 (racemic) [Example E18, (R,S)-1-Cyclobutyl-4-({1-[4-(3-methyl-1,2,4-oxadiazol-5-yl)phenyl]-3-pyrrolidinyl}carbonyl)hexahydro-1H-1,4-diazepine] | ≤ 0.316
Cc1ccc2cc(N3CCC(C(=O)N4CCCN(C5CCC5)CC4)C3)ccc2n1 (racemic) [Example E19, (R,S)-6-{3-[(4-Cyclobutylhexahydro-1H-1,4-diazepin-1-yl)carbonyl]-1-pyrrolidinyl}-2-methylquinoline] | < 10
Cc1noc(-c2ccc(N3CCC(C(=O)N4CCCN(C5CCC5)CC4)C3)c(F)c2)n1 (racemic) [Example E20, (R,S)-1-Cyclobutyl-4-({1-[2-fluoro-4-(3-methyl-1,2,4-oxadiazol-5-yl)phenyl]-3-pyrrolidinyl}carbonyl)hexahydro-1H-1,4-diazepine] | ≤ 0.316
CC(=O)c1ccc(N2CCC(C(=O)N3CCCN(C4CCC4)CC3)C2)cc1 (racemic) [Example E21, (R,S)-1-(4-{3-[(4-Cyclobutylhexahydro-1H-1,4-diazepin-1-yl)carbonyl]-1-pyrrolidinyl}phenyl)ethanone] | ≤ 0.316
Cc1ccc2cc(N3CC[C@@H](C(=O)N4CCCN(C5CCC5)CC4)C3)ccc2n1 (single isomer, unassigned) [Example E19A, hydrochloride] | < 10
Cc1ccc2cc(N3CC[C@H](C(=O)N4CCCN(C5CCC5)CC4)C3)ccc2n1 (single isomer, unassigned) [Example E19B, hydrochloride] | ≤ 0.316
Cc1noc(-c2ccc(N3CC[C@@H](C(=O)N4CCCN(C5CCC5)CC4)C3)c(F)c2)n1 (single isomer, unassigned) [Example E20A, hydrochloride] | < 10
Cc1noc(-c2ccc(N3CC[C@H](C(=O)N4CCCN(C5CCC5)CC4)C3)c(F)c2)n1 (single isomer, unassigned) [Example E20B, hydrochloride] | ≤ 0.316
CC(=O)c1ccc(N2CC[C@@H](C(=O)N3CCCN(C4CCC4)CC3)C2)cc1 (single isomer, unassigned) [Example E21A, hydrochloride] | < 10
CC(=O)c1ccc(N2CC[C@H](C(=O)N3CCCN(C4CCC4)CC3)C2)cc1 (single isomer, unassigned) [Example E21B, hydrochloride] | ≤ 0.316
CC(=O)c1ccc(N2CC[C@H](C(=O)N3CCN(C(C)C)[C@@H](C)C3)C2)cc1 [Example E5, 1-[4-((3S)-3-{[(3S)-3-Methyl-4-(1-methylethyl)-1-piperazinyl]carbonyl}-1-pyrrolidinyl)phenyl]ethanone] | ≤ 0.316
CC(=O)c1ccc(N2CC[C@H](C(=O)N3CCCN(CC4CC4)CC3)C2)cc1 [Example E10, 1-[4-((3S)-3-{[4-(Cyclopropylmethyl)hexahydro-1H-1,4-diazepin-1-yl]carbonyl}-1-pyrrolidinyl)phenyl]ethanone] | ≤ 0.316
O=C([C@H]1CCN(c2ccc(C(F)(F)F)nc2)C1)N1CCN(C2CCC2)CC1 [Example E12, 1-Cyclobutyl-4-({(3S)-1-[6-(trifluoromethyl)-3-pyridinyl]-3-pyrrolidinyl}carbonyl)piperazine] | ≤ 0.316

Continued, values first:

Ki [nM] | Compound
≤ 0.316 | Cc1noc(-c2ccc(N3CC[C@@H](C(=O)N4CCCN(C5CCC5)CC4)C3)cc2)n1 (single isomer, unassigned) [Example E18A, hydrochloride]
≤ 0.316 | Cc1noc(-c2ccc(N3CC[C@H](C(=O)N4CCCN(C5CCC5)CC4)C3)cc2)n1 (single isomer, unassigned) [Example E18B, hydrochloride]
≤ 0.316 | CC(=O)c1ccc(N2CC[C@H](C(=O)N3CCN(C(C)C)CC3)C2)cc1 [Example E2, 1-[4-((3S)-3-{[4-(1-Methylethyl)-1-piperazinyl]carbonyl}-1-pyrrolidinyl)phenyl]ethanone]
≤ 0.316 | Cc1noc(-c2ccc(N3CC[C@H](C(=O)N4CCN(C(C)C)CC4)C3)cc2)n1 [Example E3, 1-(1-Methylethyl)-4-({(3S)-1-[4-(3-methyl-1,2,4-oxadiazol-5-yl)phenyl]-3-pyrrolidinyl}carbonyl)piperazine]
≤ 0.316 | Cc1noc(-c2ccc(N3CC[C@H](C(=O)N4CCN(C(C)C)[C@@H](C)C4)C3)cc2)n1 [Example E6, (2S)-2-Methyl-1-(1-methylethyl)-4-({(3S)-1-[4-(3-methyl-1,2,4-oxadiazol-5-yl)phenyl]-3-pyrrolidinyl}carbonyl)piperazine]
≤ 0.316 | CCC(CC)N1CCN(C(=O)[C@H]2CCN(c3ccc(C(C)=O)cc3)C2)CC1 [Example E8, 1-[4-((3S)-3-{[4-(1-Ethylpropyl)-1-piperazinyl]carbonyl}-1-pyrrolidinyl)phenyl]ethanone]
≤ 0.316 | CCC(CC)N1CCN(C(=O)[C@H]2CCN(c3ccc(-c4nc(C)no4)cc3)C2)CC1 [Example E9, 1-(1-Ethylpropyl)-4-({(3S)-1-[4-(3-methyl-1,2,4-oxadiazol-5-yl)phenyl]-3-pyrrolidinyl}carbonyl)piperazine]
≤ 0.316 | Cc1noc(-c2ccc(N3CC[C@H](C(=O)N4CCCN(CC5CC5)CC4)C3)cc2)n1 [Example E11, 1-(Cyclopropylmethyl)-4-({(3S)-1-[4-(3-methyl-1,2,4-oxadiazol-5-yl)phenyl]-3-pyrrolidinyl}carbonyl)hexahydro-1H-1,4-diazepine]
≤ 0.316 | Cc1noc(-c2ccc(N3CC[C@H](C(=O)N4CCN(C5CCC5)CC4)C3)cc2)n1 [Example E13, 1-Cyclobutyl-4-({(3S)-1-[4-(3-methyl-1,2,4-oxadiazol-5-yl)phenyl]-3-pyrrolidinyl}carbonyl)piperazine]
≤ 0.316 | Cc1noc(-c2ccc(N3CC[C@H](C(=O)N4CCN(C(C)C)CC4)C3)cc2F)n1 [Example E24, 1-({(3S)-1-[3-Fluoro-4-(3-methyl-1,2,4-oxadiazol-5-yl)phenyl]-3-pyrrolidinyl}carbonyl)-4-(1-methylethyl)piperazine]
≤ 0.316 | Cc1noc(-c2ccc(N3CC[C@H](C(=O)N4CCN(C(C)C)CC4)C3)c(F)c2)n1 [Example E25, 1-({(3S)-1-[2-Fluoro-4-(3-methyl-1,2,4-oxadiazol-5-yl)phenyl]-3-pyrrolidinyl}carbonyl)-4-(1-methylethyl)piperazine]
≤ 0.316 | CC(=O)c1ccc(N2CC[C@H](C(=O)N3CCCN(C(C)C)CC3)C2)cc1 [Example E27, 1-[4-((3S)-3-{[4-(1-Methylethyl)hexahydro-1H-1,4-diazepin-1-yl]carbonyl}-1-pyrrolidinyl)phenyl]ethanone]
≤ 0.316 | Cc1noc(-c2ccc(N3CC[C@H](C(=O)N4CCCN(C(C)C)CC4)C3)cc2)n1 [Example E28, 1-(1-Methylethyl)-4-({(3S)-1-[4-(3-methyl-1,2,4-oxadiazol-5-yl)phenyl]-3-pyrrolidinyl}carbonyl)hexahydro-1H-1,4-diazepine]
≤ 0.316 | Cc1noc(-c2ccc(N3CC[C@H](C(=O)N4CCCN(C(C)C)CC4)C3)cc2F)n1 [Example E29, 1-({(3S)-1-[3-Fluoro-4-(3-methyl-1,2,4-oxadiazol-5-yl)phenyl]-3-pyrrolidinyl}carbonyl)-4-(1-methylethyl)hexahydro-1H-1,4-diazepine hydrochloride]
≤ 0.316 | Cc1nnc(-c2ccc(N3CC[C@H](C(=O)N4CCN(C(C)C)CC4)C3)cc2)o1 [Example E30, 1-(1-Methylethyl)-4-({(3S)-1-[4-(5-methyl-1,3,4-oxadiazol-2-yl)phenyl]-3-pyrrolidinyl}carbonyl)piperazine]
